Assay results published in US20230193197A1, “TUNABLE PLANT-BASED MATERIALS VIA IN VITRO CELL CULTURE USING A ZINNIA ELEGANS MODEL” (FORAY Bioscience, Inc., priority 2021, published 2023).

System: Z. elegans cells
Experiment: Full factorial hormone concentration experiment in liquid culture (live fraction, lignification, enlargement, elongation metrics)
Assay type: cell-based, Zinnia elegans
Settings: for cumulative levels of lignification / live fraction at day 12: NAA at 0.5 mg ml^-1 together with BAP at 1 mg ml^-1, compared across 16 hormone combinations
Procedure: In an embodiment, Z. elegans cells may be isolated by the maceration of young Zinnia leaves (e.g., leaves 114). Leaves collected from approximately 14 day-old Zinnia plants may be rinsed under running tap water for 5 min. Leaves may be sterilized in a solution of 5 ml commercial bleach (Clorox), 95 ml of deionized water, and […] of Tween 20 (Sigma Aldrich) for 5 min. Subsequently, leaves may be rinsed thoroughly with sterile distilled water, sliced into strips, and ground between the surfaces of a small sieve and a spoon (e.g., a stainless steel spoon). The leaf matter may be intermittently rinsed with ZE-M media and the rinsate may be collected in a bowl positioned beneath the supporting sieve. After completion of grinding, the rinsate may be collected and filtered through a […] cell strainer (e.g., manufactured by Fisher Scientific) to remove large debris. This strainer is just but an example and should not be considered limiting. The filtered solution may be centrifuged at 100 g for 8 min and resulting supernatant removed if more concentrated cell solutions are desired. Liquid cultures may be maintained at concentrations between 250,000 and 500,000 cells ml^−1 at 3 ml per well in a 6-well plate wrapped in parafilm. Cultures may be maintained at 22° C. in the dark on an orbital shaker operating at 80 rpm.
Cells may be cultured in this manner for 48 hours in the low-hormone media before transference to specialized experimental media. An incubation period may improve differentiation rates when cells may be later exposed to elevated levels of auxin and cytokinin. Auxins may be plant hormones produced in the stem tip that promote cell elongation. Cytokinins may be a class of plant hormones that promote cell division, or cytokinesis. For dispersed gel cultures, cells may be extracted and maintained in low-hormone, liquid medium for a 48 hour acclimation period, as previously described, prior to transference to a gel medium 108 solidified by the addition of Gelzan C M (e.g., manufactured by Sigma Aldrich) at a final concentration of 3 g L^−1. Cultures may be sealed off with parafilm and maintained at 22° C. in the dark.
For liquid cultures, well-mixed […] aliquots of cell suspension may be transferred to 48 well plates for imaging. A […] volume of a fluorescein diacetate (FDA) stock solution (prepared at 2 mg ml^−1 acetone) may be added to the cell suspension and incubated in the dark for 20 min. After the incubation period, […] of calcofluor white (CW) may be added and the solution rested for an additional 5 min prior to imaging. A Zeiss LSM780 confocal microscope, for example, may be set to excitation/emission wavelengths of […]/440 nm (DAPI filter) for CW and 490 nm/526 nm for FDA for imaging. Gel cultures may be stained through a similar dual-step process after wetting the gel surface with a small amount of liquid medium. Relative staining volumes may be the same, but increased incubation times may be involved (e.g., incubation times were approximately 45 min for FDA incubation, 45 min for CW incubation). Image analysis may be performed using Image-i. The thresholding tool may be used to select the relevant cell areas. To ensure robustness of the analyzed data ranges, the images corresponding to the highest and lowest values for a single sample may be analyzed a total of 3 times, with the repeated results averaged to yield a final value for the given image. […]

| SMILES | elongation metric (BAP elevated, across most NAA concentrations) | cumulative levels of lignification | live fraction at day 12 |
| --- | --- | --- | --- |
| c1ccc(CNc2ncnc3nc[nH]c23)cc1 [BAP, 6-benzylaminopurine] | reduced | highest | lowest |
| O=C(O)Cc1cccc2ccccc12 [NAA, a-naphthaleneacetic acid] |  | highest | lowest |
